Laboratory results taken from US5707821A, “Identification of phospholipase A2 inhibitors in Aβ peptide-mediated neurodegenerative disease” (priority 1995, dated 1998).

Legend:
Assay type in all cases: cell-based
[1] = test system: IL-1β release by cultured human cortical microglia; assay: IL-1β release (ELISA) from Aβ1-40-stimulated human microglia
Procedure: (§1) Cultures of human cortical or hippocampal astrocytes and microglia were prepared using a modification of the procedure described for cortical neurons. Cortical tissue from fetuses of 16 to 20 weeks of gestation was washed 3 times in Ca^2+ /Mg^2+ free Hanks balanced salt solution (CMF HBSS) and then dissociated by repeated pipetting. The solution was brought to a final volume of 80 ml CMF HBSS for approximately 10 ml of tissue. DNase (Sigma) was added to a final concentration of 0.05 mg/ml. 20 ml of the solution was passed through one 100 μm nylon cell strained (Falcon). The cells were then centrifuged for 5 minutes at 200×G in an IEC Clinical Centrifuge and resuspended in a trypsin/EDTA solution (0.05% trypsin+0.53 mM EDTA in HBSS; Gibco) and incubated for 20 minutes at 37°C. (10 ml of trypsin was added per 2-3 ml of tissue). The trypsin was then inactivated by adding (MEM/FBS): Modified Eagle's Medium (MEM) containing 1% glucose, 1 mM sodium pyruvate, 1 mM glutamine, and supplemented with 10% fetal bovine serum (JRH). After adding a final concentration of 0.05 mg/ml DNase the cells were resuspended and then pelleted by centrifugation and resuspended in MEM/FBS. 1.6×10^8 cells were seeded in a T-150 tissue culture flask coated with polyethyleneimine (PEI). (10% PEI (Sigma) was diluted 1:10 in H2 O, filtered through a […] unit and then diluted into 150 mM sodium borate pH 8.5 at 1:100. The flasks were coated overnight at room temperature, washed two times in PBS and coated with 20 ml/flask of MEM/FBS at 37° C. for at least one hour prior to plating cells.) Cultures were maintained in a H2 O-saturated incubator with an atmosphere of 95% air/5% CO2 at 37° C. The culture medium was changed one and four days after plating and the cultures were then left undisturbed for at least one week. After approximately two weeks in vitro, the flasks were gently shaken and floating microglia were collected and centrifuged for 5 minutes at 200×G in an IEC Clinical Centrifuge. The microglia were reseeded in 96 well tissue culture plates at a density of 5,000-40,000 cells/well in 125 μl in MEM/FBS. Astrocyte cultures were prepared by multiple passaging of the established mixed brain cell cultures. Each T-150 was incubated for 3-4 minutes at 37°C. with a trypsin/EDTA solution (see above). The trypsin was then inactivated by adding MEM/FBS. The cells were triturated and then pelleted by centrifugation and resuspended in MEM/FBS. The cells from one T-150 were seeded at a 1:30 to 1:5 dilution in T-150's not coated. Just prior to confluency the cells were repassaged by trypsinization as described above. This process was repeated until the cultures were >98% pure astrocytes.
(§2) Cultured microglial cells were treated with 50 μM of Aβ1-40 or vehicle only (Control). The levels of IL-1β, IL-6, and TNF-α released into the culture medium were determined by ELISA assay (R&D Systems) according to manufacturer's instructions.
(§3) The effect of two benzenesulfonamide inhibitors of PLA2 (European Patent Application 468 054) were examined on the activation of microglial cells by Aβ1-40 as in Example 1.
(§4) The effects of the benzenesulfonamide PLA2 inhibitor AN20606 and the selective cytosolic PLA2 inhibitor arachidonyl trifluoromethyl ketone (AN20579) were examined in cultured human cortical microglia for their selectivity for inhibiting microglia activation mediated by amyloid-βpeptide and lipopolysaccharides (LPS). LPS are a major constituent of the cell wall of gama-negative bacteria and are extensively used for generating inflammatory responses in cultured cells and in vivo.

[2] = test system: TNF-α release by cultured human cortical microglia; assay: TNF-α release (ELISA) from Aβ1-40-stimulated human microglia
Procedure: as §1, §2, §3, §4

human cortical neurons [3] = assay: Aβ neurotoxicity / survival of human cortical neurons (alamarBlue), compound added at time of Aβ1-40
Procedure: (§5) Cultures of human cortical or hippocampal neurons were prepared using a modification of the procedure described in P. Seubert et al. (1992), Nature 359:325-327. Cortical or hippocampal tissue was dissociated by incubation in a trypsin/EDTA solution (0.05% trypsin +0.53 mM EDTA in HBSS; Gibco) for 20 minutes at 37° C. The trypsin was then inactivated by resuspending the cells in serum-containing medium (MEM/FBS): Modified Eagle's Medium (MEM) containing 1% glucose, 1 mM sodium pyruvate, 1 mM glutamine, and supplemented with 10% fetal bovine serum (Gibco). Cells were then pelleted by centrifugation and resuspended in a chemically-defined medium (MEM/B27): MEM containing B27 supplement (Gibco) in place of FBS. Polyethyleneimine (PEI)-coated 6.4-mm (96-well) dishes were rinsed once with MEM/FBS, and then seeded at 0.75-1.25×10^5 cells per well in 0.1 ml MEM/B27. Cultures were maintained in a H2 O-saturated incubator with an atmosphere of 95% air/5% CO2 at 37° C. The culture medium was exchanged twice weekly.
Amyloid-β (Aβ) stock solutions were prepared as 1 mM stocks in sterile ddH2 O immediately prior to addition to cultures. Rat cortical neurons were exposed to Aβ by removing the culture medium and replacing it with DMEM/N2 or DMEM/B27 containing Aβ1-40. Human cortical neurons were exposed to Aβ by removing the culture medium and replacing it with MEM, MEM/N2, or MEM/B27 containing Aβ1-40. Cultures were maintained for 2-4 days before neuronal survival was quantified using alamarBlue™.
(§6) The alamarBlue™ assay incorporated a proprietary fluorometric/colorimetric metabolic indicator (Alamar Biosciences, Inc.). Viable cells convert alamarBlue™ from an oxidized (non-fluorescent, blue) form to a reduced (fluorescent, red) form. Assays were performed by replacing the culture media with a 10% alamarBlue™ solution in DMEM (rat cortical cultures) or MEM (human cortical cultures). Reduction of alamarBlue™ was determined spectrofluorometrically using a Millipore Cytofluor 2350 Scanner (excitation, […]; emission, 590 nm) and CytoCalc™ software (Millipore Corporation).
The effect of the two benzenesulfonamide inhibitors of PLA2 in Example 2 were examined to determine the dose-dependence of their effect on neuronal survival in human cortical neuron cultures exposed to 0 μM, 25μM, or 50 μM of Aβ1-40 and varying doses of the benzenesulfonamide.
(§7) Human cortical neurons were treated with 50 μM Aβ1-40 and various inhibitors of PLA2 or PLC. Compounds were added at the time of Aβ1-40 treatment at concentrations 390 nM to 100 μM. Compounds were also added to neuronal cultures in the absence of Aβ1-40. Neuronal survival was determined after 3 days of treatment by alamarBlue®. IC50 is the dose of compound that inhibited Aβ-mediated neurotoxicity by 50%. […] Data represents the mean ± SD (n=3). ND, not detected at the concentration range used.

human cortical neurons [4] = assay: Compound toxicity to human cortical neurons in absence of Aβ1-40 (alamarBlue, 3 days); conditions: human, 4320 min
Procedure: as §5, §6, §7

[5] = 50 μM Aβ1-40, 1 day, compound 0, 5, 10, 20 μM, FIG. 2
[6] = 50 μM Aβ1-40, inhibitor 20 μM where present

In the case of `CN(C(=O)/C=C/c1ccc(S(C)(=O)=O)cc1)c1ccc(S(=O)(=O)NC2CCCCCC2)cc1` [AN20606, N-cycloheptyl-4-[N-methyl-N-[(E)-3-(4-methylsulfonylphenyl)-2-propenoyl]amino]benzenesulfonamide], the “amount of IL-1β released into the medium (in words)” value [1, 5] is reported as “marked and dose-dependent decrease”, the “IL-1 Released” value [1, 6] is reported as 16.5 ± 6 pg/mL and the “Aβ1-40-mediated IL-1β release, selectivity versus LPS (in words)” value ([1]; Aβ1-40 versus LPS stimulation) is reported as “selectively inhibited”. For the same compound, the activity at 20 µM ([1]; Homo sapiens, Microglia, 50 μM Aβ1-40 + 20 μM inhibitor, read-out: IL-1 Released, percent in parentheses (relative to Aβ1-40 alone)) was 6%, the “amount of TNF-α released into the medium (in words)” value [2, 5] was “marked and dose-dependent decrease” and the “TNF Released” value [2, 6] was 3.7 ± 1.4 pg/mL. The “Aβ1-40-mediated TNFα release, selectivity versus LPS (in words)” value ([2]; Aβ1-40 versus LPS stimulation) was “selectively inhibited”, the activity at 20 µM ([2]; Homo sapiens, Microglia, 50 μM Aβ1-40 + 20 μM inhibitor, read-out: TNF Released, percent in parentheses (relative to Aβ1-40 alone)) was 4% and the “neuronal survival in the presence of pathogenic Aβ peptide (in words)” value (human cortical neurons [3]; 0, 25 or 50 μM Aβ1-40, varying doses, FIG. 3, FIG. 4) was “dose-dependent increase in neuronal survival”. The “Max Inh” value (human cortical neurons [3]; 50 μM Aβ1-40, compound 390 nM to 100 μM added at time of Aβ, 3 days, n=3) was 80%, the IC50 (human cortical neurons [3]; Homo sapiens, Cortical neurone, 72 h, 50 μM Aβ1-40, compound 390 nM to 100 μM added at time of Aβ, 3 days, n=3, ND = not detected at the concentration range used, read-out: IC50 (dose that inhibited Aβ-mediated neurotoxicity by 50%)) was 5 µM and the “TD10 (concentration giving 10% loss of neuronal survival)” value (human cortical neurons [4]) was 98 µM.
